Assay results taken from US8952024B2, “Herbicidal pyrimidone derivatives” (E I du Pont de Nemours and Company, priority 2009, dated 2015).

Key:
Test in all cases: Test D pre-/postemergence plant response
Assay type in all cases: in vivo
[1] = system: bermudagrass (Cynodon dactylon)
Procedure, shortened: (§1)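 Scores (0 no effect, 100 complete control) reflect visual assessment against untreated plants after 14 to 21 days. Treatments were pre- and postemergence sprays in solvent with surfactant.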

[2] = system: Russian thistle (Salsola kali)
Procedure, shortened: as §1

[3] = system: dallisgrass (Paspalum dilatatum)
Procedure, shortened: as §1

[4] = Postemergence, 31 g ai/ha, scale 0 to 100 (0 no effect, 100 complete control)
[5] = Postemergence, 62 g ai/ha, scale 0 to 100 (0 no effect, 100 complete control)
[6] = Postemergence, 125 g ai/ha, scale 0 to 100 (0 no effect, 100 complete control)
[7] = Postemergence, 16 g ai/ha, scale 0 to 100
[8] = Preemergence, 16 g ai/ha, scale 0 to 100, 0 no effect, 100 complete control
[9] = Preemergence, 31 g ai/ha, scale 0 to 100 (0 no effect, 100 complete control)
[10] = Preemergence, 62 g ai/ha, scale 0 to 100
[11] = Preemergence, 125 g ai/ha, scale 0 to 100
[12] = Postemergence, 31 g ai/ha, scale 0 to 100
[13] = Postemergence, 250 g ai/ha, scale 0 to 100 (0 no effect, 100 complete control)

Structure (SMILES) | Plant response rating, Bermudagrass [1, 4] | Plant response rating, Bermudagrass [1, 5] | Plant response rating, Bermudagrass [1, 6] | Plant response rating, Bermudagrass [1, 7] | Plant response rating, Bermudagrass [1, 8] | Plant response rating, Bermudagrass [1, 9] | Plant response rating, Bermudagrass [1, 10] | Plant response rating, Bermudagrass [1, 11] | Plant response rating, Russian Thistle [2, 6] | Plant response rating, Russian Thistle [2, 9] | Plant response rating, Russian Thistle [2, 11] | Plant response rating, Dallisgrass [3, 12] | Plant response rating, Dallisgrass [3, 5] | Plant response rating, Dallisgrass [3, 6] | Plant response rating, Dallisgrass [3, 7] | Plant response rating, Dallisgrass [3, 8] | Plant response rating, Dallisgrass [3, 9] | Plant response rating, Dallisgrass [3, 10] | Plant response rating, Dallisgrass [3, 11] | Plant response rating, Bermudagrass [1, 13] | other results
O=C1CCCC(O)=C1C(=O)c1cnc(-c2ccccc2)n(CC2CCCO2)c1=O (stereo not shown) [Compound 59] | 40 | 70 | 80 | 35 | 0 | 0 | 40 | 90 | 65 | 90 | 100 | 10 | 20 | 50 | 10 | 0 | 0 | 65 | 75 | – | –
COCCn1c(-c2ccccc2)ncc(C(=O)C2=C(O)CCCC2=O)c1=O [Compound 85] | 75 | 80 | 90 | 65 | 80 | 100 | 100 | 100 | – | – | – | 25 | 65 | 80 | 15 | 50 | 80 | 95 | 98 | – | –
COCCn1c(-c2ccsc2)ncc(C(=O)C2=C(O)C3CCC(C3)C2=O)c1=O (stereo not shown) [Compound 228] | 70 | – | 70 | – | – | – | – | – | 65 | – | – | – | – | 5 | – | – | – | – | – | – | –
COCCn1c(-c2cccc(C)c2)ncc(C(=O)C2=C(O)C3CCC(C3)C2=O)c1=O (stereo not shown) [Compound 233] | 70 | 70 | 70 | 70 | 5 | 5 | 85 | 85 | 10 | 65 | 100 | 10 | 10 | 35 | 0 | 0 | 0 | 0 | 35 | – | Plant response rating, Russian Thistle [2, 7]: 0; Plant response rating, Russian Thistle [2, 8]: 50; Plant response rating, Russian Thistle ([2]; Preemergence, rate not given, scale 0 to 100, 0 no effect, 100 complete control): 75
COCCn1c(-c2cccc(F)c2)ncc(C(=O)C2=C(O)C3CCC(C3)C2=O)c1=O (stereo not shown) [Compound 235] | 80 | 95 | 95 | – | – | – | – | – | 50 | – | – | 70 | 75 | 80 | – | – | – | – | – | 95 | Plant response rating, Russian Thistle [2, 12]: 30; Plant response rating, Russian Thistle [2, 5]: 30; Plant response rating, Russian Thistle [2, 13]: 60; Plant response rating, Dallisgrass [3, 13]: 80
COCCCn1c(-c2cccc(F)c2)ncc(C(=O)C2=C(O)C3CCC(C3)C2=O)c1=O (stereo not shown) [Compound 238] | 80 | 90 | 95 | – | – | – | – | – | 50 | – | – | 10 | 65 | 70 | – | – | – | – | – | 95 | Plant response rating, Russian Thistle [2, 12]: 30; Plant response rating, Russian Thistle [2, 5]: 40; Plant response rating, Russian Thistle [2, 13]: 50; Plant response rating, Dallisgrass [3, 13]: 75
